Source: patent US8691855B2, “Compounds, isomer thereof, or pharmaceutically acceptable salts thereof as vanilloid receptor antagonist and pharmaceutical compositions containing the same” (Amorepacific Corporation, priority 2008, dated 2014)
pIC50: −log10 of the molar value.

Target: T1, vanilloid receptor (Rattus norvegicus, UniProt O35433)
T1 construct: DRG nerve cells from the primary culture of 2 days were equilibrated; endogenous in cells; host or cells: primary culture of dorsal root ganglion neurons from neonatal SD rats
T1 sequence (O35433 whole entry): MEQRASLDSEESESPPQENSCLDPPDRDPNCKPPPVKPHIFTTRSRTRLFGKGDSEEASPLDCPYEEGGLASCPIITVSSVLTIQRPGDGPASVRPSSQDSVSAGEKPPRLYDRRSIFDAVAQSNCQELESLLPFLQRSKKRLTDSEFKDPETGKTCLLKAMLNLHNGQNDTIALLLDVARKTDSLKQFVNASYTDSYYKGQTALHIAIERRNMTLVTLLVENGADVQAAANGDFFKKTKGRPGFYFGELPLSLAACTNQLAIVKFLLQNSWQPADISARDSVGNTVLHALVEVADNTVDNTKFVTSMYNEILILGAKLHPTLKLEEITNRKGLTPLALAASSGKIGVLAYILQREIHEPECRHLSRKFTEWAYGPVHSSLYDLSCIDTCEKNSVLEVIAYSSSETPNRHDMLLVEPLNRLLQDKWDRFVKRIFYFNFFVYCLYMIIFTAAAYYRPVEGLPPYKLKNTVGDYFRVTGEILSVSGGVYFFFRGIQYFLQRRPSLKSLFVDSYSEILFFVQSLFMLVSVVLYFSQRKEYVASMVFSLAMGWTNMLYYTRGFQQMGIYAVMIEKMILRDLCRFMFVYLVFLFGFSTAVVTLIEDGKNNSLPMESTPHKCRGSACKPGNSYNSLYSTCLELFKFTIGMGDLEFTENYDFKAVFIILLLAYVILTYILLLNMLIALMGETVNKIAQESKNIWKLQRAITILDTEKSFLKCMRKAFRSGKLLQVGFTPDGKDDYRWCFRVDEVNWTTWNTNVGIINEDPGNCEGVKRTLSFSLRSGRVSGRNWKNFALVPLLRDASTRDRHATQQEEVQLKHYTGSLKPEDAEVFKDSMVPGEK
Assay: 45Ca influx test (antagonist calcium uptake test) in rat DRG neurons stimulated with capsaicin
Format: cell-based
Conditions: DRG neuron; @3 μM; neonatal SD rat DRG neurons; capsaicin 0.5 μM; read-out: Antagonist Calcium Uptake Test, percent inhibition of capsaicin response
Procedure: 1) Separation of spinal dorsal root ganglia (DRG) in newborn rats and primary culture thereof
Neonatal (2-3 clay old or younger than 2-3 day old) SD rats were put in ice for 5 minutes to anesthetize and disinfected with 70% ethanol. DRG of all part of spinal cord were dissected (Wood et al., 1988, J. Neurosci. 8, pp 3208-3220) and collected in DME/F12 medium to which 1.2 g/l sodium bicarbonate and 50 mg/l gentamycin were added. The DRG were incubated sequentially at 37° C. for 30 mins in 200 U/ml collagenase and 2.5 mg/ml trypsin, separately. The ganglia were washed twice with DME/F12 medium supplemented with 10% horse serum, triturated through a fire-polished Pasteur pipette, filtered through Nitex 80 membrane to obtain single cell suspension and the suspension was washed once more. This was subjected to centrifugation, then resuspended in cell culture medium at certain level of cell density. As the cell culture medium, DME/F12 medium supplemented with 10% horse serum was diluted with identical medium conditioned by C6 glioma cells 2 clays on a confluent monolayer (1:1), and NGF (Nerve Growth Factor) was added to adjust 200 ng/ml as final concentration. After the cells were grown 2 days in medium where cytosine arabinoside (Ara-C, 100 μM) was added to kill dividing nonneuronal cells, medium was changed to one without Ara-C. The resuspended cells were plated at a density of 1500-2000 neurons/well onto Terasaki plates previously coated with 10 μg/ml poly-D-ornithine.
2) ^45Ca Influx Experiments
DRG nerve cells from the primary culture of 2 days were equilibrated by washing 4 times with HEPES (10 mM, pH 7.4)-buffered Ca^2+, Mg^2+-free HBSS (H-HBSS). The solution in each well was removed from the individual well. Medium containing the test compound plus capsaicin (final concentration 0.5 μM) and ^45Ca (final concentration 10 μCi/ml) in H-HBSS was added to each well and incubated at room temperature for 10 nuns. Terasaki plates were washed five times with H-HBSS and dried at room temperature. To each well, 0.3% SDS (10 μl) was added to elute ^45Ca. After the addition of scintillation cocktail of into each well, the amount of ^45Ca influx into neuron was measured by counting radioactivity. Antagonistic activities of test compounds against vanilloid receptor were calculated as percent of the inhibition of maximal response of capsaicin at a concentration of 0.5 μM.

Row | Structure (SMILES) | inhibition at 3 µM
1 | C[C@@H](NC(=O)c1coc(-c2ccc(C(F)(F)F)cc2)n1)c1cc(F)c(NS(C)(=O)=O)c(F)c1 [Example 74, 2-(4-Trifluoromethyl-phenyl)-oxazole-4-carboxylic acid [1-(3,5-difluoro-4-methanesulfonylamino-phenyl)-ethyl]-amide] | 89%

Same assay, conditions: neonatal SD rat DRG neurons; capsaicin 0.5 μM; 45Ca

Row | Structure (SMILES) | pIC50
2 | CC(C)Oc1cccc(Oc2nc(C(=O)N[C@H](C)c3cc(F)c(NS(C)(=O)=O)c(F)c3)co2)c1 [Example 48, 2-(3-Isopropoxy-phenoxy)-oxazole-4-carboxylic acid [1-(3,5-difluoro-4-methanesulfonylamino-phenyl)-ethyl]-amide] | 5.92
3 | C[C@@H](NC(=O)c1coc(Oc2cccc3c2OC2(CCCC2)O3)n1)c1cc(F)c(NS(C)(=O)=O)c(F)c1 [Example 49, 2-(2,3-Dihydroxy-phenoxy)-oxazole-4-carboxylic acid [1-(3,5-difluoro-4-methanesulfonylamino-phenyl)-ethyl]-amide, cyclopentanone ketal] | 6.22
4 | Cc1ccc(C2CCCCC2)c(Oc2nc(C(=O)N[C@H](C)c3cc(F)c(NS(C)(=O)=O)c(F)c3)co2)c1 [Example 50, 2-(2-Cyclohexyl-5-methyl-phenoxy)-oxazole-4-carboxylic acid [1-(3,5-difluoro-4-methanesulfonylamino-phenyl)-ethyl]-amide] | 5.96
5 | CC(C)c1ccc(I)c(Oc2nc(C(=O)N[C@H](C)c3cc(F)c(NS(C)(=O)=O)c(F)c3)co2)c1 [Example 52, 2-(2-Iodo-5-isopropyl-phenoxy)-oxazole-4-carboxylic acid [1-(3,5-difluoro-4-methanesulfonylamino-phenyl)-ethyl]-amide] | 5.74
6 | C[C@@H](NC(=O)c1coc(Oc2cc(C(F)(F)F)ccc2Cl)n1)c1cc(F)c(NS(C)(=O)=O)c(F)c1 [Example 53, 2-(2-Chloro-5-trifluoromethyl-phenoxy)-oxazole-4-carboxylic acid [1-(3,5-difluoro-4-methanesulfonylamino-phenyl)-ethyl]-amide] | 6.14
7 | C[C@@H](NC(=O)c1coc(Oc2cc(C(F)(F)F)ccc2C2CC2)n1)c1cc(F)c(NS(C)(=O)=O)c(F)c1 [Example 54, 2-(2-Cyclopropyl-5-trifluoromethyl-phenoxy)-oxazole-4-carboxylic acid [1-(3,5-difluoro-4-methanesulfonylamino-phenyl)-ethyl]-amide] | 5.54
8 | C[C@@H](NC(=O)c1coc(Oc2cccc(I)c2)n1)c1cc(F)c(NS(C)(=O)=O)c(F)c1 [Example 58, 2-(3-Iodo-phenoxy)-oxazole-4-carboxylic acid [1-(3,5-difluoro-4-methanesulfonylamino-phenyl)-ethyl]-amide] | 7.03
9 | CC(C)c1cccc(Oc2ccc(C(=O)N[C@H](C)c3cc(F)c(NS(C)(=O)=O)c(F)c3)o2)c1 [Example 59, 5-(3-Isopropyl-phenoxy)-furan-2-carboxylic acid [1-(3,5-difluoro-4-methanesulfonylamino-phenyl)-ethyl]-amide] | 6.00
10 | CS(=O)(=O)Nc1c(F)cc(CNC(=O)c2ccc(-c3ccc(C(F)(F)F)cc3)s2)cc1F [Example 60, 5-(4-Trifluoromethyl-phenyl)-thiophene-2-carboxylic acid 3,5-difluoro-4-methanesulfonylamino-benzylamide] | 5.21
11 | CC(C)(C)c1ccc(-c2ccc(C(=O)NCc3cc(F)c(NS(C)(=O)=O)c(F)c3)s2)cc1 [Example 63, 5-(4-tert-Butyl-phenyl)-thiophene-2-carboxylic acid 3,5-difluoro-4-methanesulfonylamino-benzylamide] | < 5.00
12 | CCOc1cccc(-c2ccc(C(=O)NCc3cc(F)c(NS(C)(=O)=O)c(F)c3)s2)c1 [Example 64, 5-(3-Ethoxy-phenyl)-thiophene-2-carboxylic acid 3,5-difluoro-4-methanesulfonylamino-benzylamide] | 5.39
13 | CCCCOc1ccccc1-c1nc(C(=O)N[C@H](C)c2cc(F)c(NS(C)(=O)=O)c(F)c2)co1 [Example 66, 2-(2-Butoxy-phenyl)-oxazole-4-carboxylic acid [1-(3,5-difluoro-4-methanesulfonylamino-phenyl)-ethyl]-amide] | 6.12
14 | CCCOc1cccc(-c2nc(C(=O)N[C@H](C)c3cc(F)c(NS(C)(=O)=O)c(F)c3)co2)c1 [Example 71, 2-(3-Propoxy-phenyl)-oxazole-4-carboxylic acid [1-(3,5-difluoro-4-methanesulfonylamino-phenyl)-ethyl]-amide] | 5.92
15 | CC(C)c1cccc(-c2ccc(C(=O)N[C@H](C)c3cc(F)c(NS(C)(=O)=O)c(F)c3)s2)c1 [Example 72, 5-(3-Isopropyl-phenyl)-thiophene-2-carboxylic acid [1-(3,5-difluoro-4-methanesulfonylamino-phenyl)-ethyl]-amide] | 5.85
16 | C[C@@H](NC(=O)c1coc(-c2ccc(C(C)(C)C)cc2)n1)c1cc(F)c(NS(C)(=O)=O)c(F)c1 [Example 75, 2-(4-tort-Butyl-phenyl)-oxazole-4-carboxylic acid [1-(3,5-difluoro-4-methanesulfonylamino-phenyl)-ethyl]-amide] | 5.62
17 | CC(=O)c1cccc(-c2nc(C(=O)N[C@H](C)c3cc(F)c(NS(C)(=O)=O)c(F)c3)co2)c1 [Example 76, 2-(3-Acetyl-phenyl)-oxazole-4-carboxylic acid [1-(3,5-difluoro-4-methanesulfonylamino-phenyl)-ethyl]-amide] | < 5.00

More lines, now with the values ahead:

Row | pIC50 | Structure (SMILES)
18 | 5.55 | CS(=O)(=O)Nc1c(F)cc(CNC(=O)c2cc(-c3ccc(Br)cc3)oc2C(F)(F)F)cc1F [Example 61, 5-(4-Bromo-phenyl)-2-trifluoromethyl-furan-3-carboxylic acid 3,5-difluoro-4-methanesulfonylamino-benzylamide]
19 | 5.57 | CS(=O)(=O)Nc1c(F)cc(CNC(=O)c2ccc(-c3cccc(C(F)(F)F)c3)s2)cc1F [Example 65, 5-(3-Trifluoromethyl-phenyl)-thiophene-2-carboxylic acid 3,5-difluoro-4-methanesulfonylamino-benzylamide]
20 | 5.70 | COc1ccc(C(C)C)cc1-c1nc(C(=O)N[C@H](C)c2cc(F)c(NS(C)(=O)=O)c(F)c2)co1 [Example 77, 2-(5-Isopropyl-2-methoxy-phenyl)-oxazole-4-carboxylic acid [1-(3,5-difluoro-4-methanesulfonylamino-phenyl)-ethyl]-amide]
21 | 5.96 | C[C@@H](NC(=O)c1coc(Oc2cccc(C3CCCC3)c2)n1)c1cc(F)c(NS(C)(=O)=O)c(F)c1 [Example 51, 2-(3-Cyclopentyl-phenoxy)-oxazole-4-carboxylic acid [1-(3,5-difluoro-4-methanesulfonylamino-phenyl)-ethyl]-amide]
22 | 6.06 | C[C@@H](NC(=O)c1coc(-c2cccc(-c3ccccc3)c2)n1)c1cc(F)c(NS(C)(=O)=O)c(F)c1 [Example 70, 2-Biphenyl-3-yl-oxazole-4-carboxylic acid [1-(3,5-difluoro-4-methanesulfonylamino-phenyl)-ethyl]-amide]
23 | 6.11 | C[C@@H](NC(=O)c1coc(Oc2cccc(C(F)(F)F)c2Cl)n1)c1cc(F)c(NS(C)(=O)=O)c(F)c1 [Example 45, 2-(2-Chloro-3-trifluoromethyl-phenoxy)-oxazole-4-carboxylic acid [1-(3,5-difluoro-4-methanesulfonylamino-phenyl)-ethyl]-amide]
24 | 6.21 | Cc1ccc(C(C)C)cc1Oc1nc(C(=O)N[C@H](C)c2cc(F)c(NS(C)(=O)=O)c(F)c2)co1 [Example 47, 2-(5-Isopropyl-2-methyl-phenoxy)-oxazole-4-carboxylic acid [1-(3,5-difluoro-4-methanesulfonylamino-phenyl)-ethyl]-amide]
25 | 6.25 | C[C@@H](NC(=O)c1coc(Oc2cccc(C3CCC3)c2)n1)c1cc(F)c(NS(C)(=O)=O)c(F)c1 [Example 56, 2-(3-Cyclobutyl-phenoxy)-oxazole-4-carboxylic acid [1-(3,5-difluoro-4-methanesulfonylamino-phenyl)-ethyl]-amide]
26 | 6.36 | C[C@@H](NC(=O)c1cc(-c2ccc(Br)cc2)oc1C(F)(F)F)c1cc(F)c(NS(C)(=O)=O)c(F)c1 [Example 62, 5-(4-Bromo-phenyl)-2-trifluoromethyl-furan-3-carboxylic acid [1-(3,5-difluoro-4-methanesulfonylamino-phenyl)-ethyl]-amide]
